Reference: ChEMBL document CHEMBL1201862, “PubChem BioAssay data set” (2004)
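96-well plates; 48 h exposure; 5 concentrations. Endpoints by linear interpolation between flanking doses. Not reached: highest tested concentration assigned. GI50: concentration for 50% inhibition of growth.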 Activity calls are given as the source filed them. Rule as the data show it: active = GI50 up to about 1.1 µM and inactive = higher.

Key:
Assay in all cases: growth of human tumour cells (NCI), 48 h
RXF 393 = system: RXF 393
HCC 2998 = system: HCC 2998
NCI-H23 = system: NCI-H23
A549 = system: A549
ACHN = system: ACHN
Malme-3M = system: Malme-3M
SK-MEL-2 = system: SK-MEL-2
HT-29 = system: HT-29
MDA-MB-435 = system: MDA-MB-435
A498 = system: A498
TK-10 = system: TK-10
786-0 = system: 786-0
DU-145 = system: DU-145
NCI-H522 = system: NCI-H522
PC-3 = system: PC-3
RPMI-8226 = system: RPMI-8226
U-251 = system: U-251
IGROV-1 = system: IGROV-1
SK-MEL-5 = system: SK-MEL-5
UACC-62 = system: UACC-62

Measured: GI50

CC1=[N+]([O-])C(C)(C)N(O)C1(C)C
inactive: RXF 393 > 100 µM | HCC 2998 > 100 µM | NCI-H23 > 100 µM | A549 > 100 µM | ACHN > 100 µM | Malme-3M > 100 µM | SK-MEL-2 > 100 µM | HT-29 > 100 µM | MDA-MB-435 > 100 µM | A498 > 100 µM | TK-10 > 100 µM | 786-0 > 100 µM | DU-145 > 100 µM | NCI-H522 > 100 µM | PC-3 > 100 µM | RPMI-8226 > 100 µM | U-251 > 100 µM | IGROV-1 > 100 µM | SK-MEL-5 > 100 µM | UACC-62 > 100 µM

CCOC(=O)CCC(NC(=O)Cc1ccc(Nc2nc3ccccc3nc2-c2cccs2)cc1)C(=O)OCC (stereo not drawn)
inactive: RXF 393 12.9 µM | HCC 2998 > 100 µM | NCI-H23 30.1 µM | A549 64.1 µM | ACHN > 100 µM | Malme-3M 49.8 µM | SK-MEL-2 54.3 µM | HT-29 > 100 µM | MDA-MB-435 38.1 µM | A498 69.7 µM | TK-10 23.5 µM | 786-0 29.6 µM | DU-145 44.2 µM | NCI-H522 32 µM | PC-3 45.7 µM | RPMI-8226 > 100 µM | U-251 28.1 µM | SK-MEL-5 37.4 µM | UACC-62 64.6 µM

O=C(Nn1c(-c2ccccc2)nc2ccccc2c1=O)c1cccc([N+](=O)[O-])c1
inactive: RXF 393 > 100 µM | HCC 2998 > 100 µM | NCI-H23 57.1 µM | A549 44.4 µM | ACHN 86.7 µM | HT-29 79.8 µM | MDA-MB-435 > 100 µM | A498 48.9 µM | TK-10 91.8 µM | 786-0 > 100 µM | DU-145 > 100 µM | NCI-H522 67 µM | PC-3 43.1 µM | RPMI-8226 46.8 µM | U-251 62.4 µM | IGROV-1 > 100 µM | SK-MEL-5 37.6 µM | UACC-62 29.2 µM

O=C(CSC1=NCCN1)Nc1ccccc1
inactive: RXF 393 13.8 µM | HCC 2998 23.8 µM | NCI-H23 37.6 µM | A549 > 100 µM | ACHN 22.4 µM | Malme-3M 24.8 µM | SK-MEL-2 17.8 µM | HT-29 31.4 µM | MDA-MB-435 34.8 µM | A498 35 µM | TK-10 19.2 µM | 786-0 16.1 µM | DU-145 33.7 µM | NCI-H522 19 µM | PC-3 19.9 µM | RPMI-8226 41.2 µM | U-251 18.3 µM | IGROV-1 33.4 µM | UACC-62 22.1 µM

O=C(O)c1nc2ccccc2nc1Nc1ccc(Cl)c(Cl)c1
inactive: RXF 393 25.4 µM | HCC 2998 18.2 µM | NCI-H23 17.7 µM | A549 24.1 µM | ACHN 29.5 µM | Malme-3M 18.4 µM | MDA-MB-435 28.4 µM | A498 13.1 µM | TK-10 42.9 µM | 786-0 20.2 µM | DU-145 36.4 µM | NCI-H522 17 µM | PC-3 32.6 µM | RPMI-8226 35.3 µM | U-251 22.1 µM | IGROV-1 20.5 µM | SK-MEL-5 15.7 µM

Oc1ccc2c(c1)-c1c(c3cc(O)ccc3n1CCN1CCOCC1)CC2
inactive: RXF 393 19.7 µM | HCC 2998 16.9 µM | NCI-H23 25.3 µM | A549 28.4 µM | ACHN 30.5 µM | SK-MEL-2 17.6 µM | HT-29 26 µM | MDA-MB-435 17.8 µM | A498 21 µM | TK-10 41.1 µM | 786-0 21.9 µM | DU-145 28.4 µM | NCI-H522 17.4 µM | PC-3 18.4 µM | RPMI-8226 24.7 µM | U-251 19.7 µM | IGROV-1 24.2 µM | SK-MEL-5 16.6 µM | UACC-62 16.7 µM

CC(=O)OC(Cn1cncn1)(Cn1cncn1)c1ccc(Cl)cc1Cl
inactive: RXF 393 > 100 µM | HCC 2998 > 100 µM | A549 > 100 µM | SK-MEL-2 > 100 µM | HT-29 > 100 µM | MDA-MB-435 > 100 µM | A498 > 100 µM | TK-10 > 100 µM | 786-0 > 100 µM | DU-145 > 100 µM | NCI-H522 > 100 µM | PC-3 > 100 µM | RPMI-8226 > 100 µM | U-251 > 100 µM | IGROV-1 > 100 µM | SK-MEL-5 > 100 µM
